# Several values for one entry are separate records, joined by “and”; a condition that tells them apart may be missing. Identical values can stand only once.
# Tests used:
# virus HBV = assay: In vivo protection test in ducks (I.V.), inoculum 2.10^7 vge/canard; settings: Bardac® 0,1 %, voie I.V.
# Source text: II - Essais in vivo chez le canard (voie I.V.).
# • Bardac® 0,02 % (dose 100 fois inférieure à celle qui est efficace in vitro pour le Bardac® seul) - CHG 0,025 % contre un inoculum à 2.10^7 vge/canard protège 3/3 canards (figure 2). • Bardac® 0,1 % (dose 5 fois plus forte que dans une composition conforme à l'invention pour obtenir une protection équivalente) contre un inoculum à 2.10^7 vge/canard (vge = viral genoma equivalent) protège 4/4 canards (figure 3).
# La figure 1 correspond à un témoin d'infection : 4/4 canards inoculés avec 2.10^7 vge développent une virémie dont le pic se situe entre 5 et 10 jours.
# [1] = tested on: Herpès virus Hominis type 1, souche Bey (HSV1); assay: Immediate virucidal action on HSV1, plaque count on Vero cells; type: cell-based; settings: Bardac® 0,02 %; 3 boîtes de culture; J4
# Description: Il s'agit d'une souche d'Herpès virus Hominis type 1, souche Bey (HSV1), elle est entretenue sur cellules fibroblastiques humaines ou sur cellules KB et a subi un nombre de passages importants, sur l'un ou l'autre type de cellules.
# On utilise un lot viral congelé à -80°C après obtention d'un effet cytopathique ayant atteint au moins 80 % des cellules, sans une centrifugation préalable, qui aurait débarrassé l'inoculum de la majorité des débris cellulaires; en effet, il apparaît que l'infectivité du virus disparaît très rapidement lorsqu'il est extracellulaire, et, en conséquence, on est plus près de la réalité de l'infection in vivo lorsqu'on utilise un lot viral dans lequel des virions peuvent encore se trouver dans des débris cellulaires.
# Ce lot a été titré, après répartition en aliquots de 0,5 ml, conservés à -80°C, sur cellules fibroblastiques humaines : • . par dilution de 10 en 10 et inoculations de 8 tubes de cultures par dilution : 10^6/ml; • . par inoculation de cultures en boîtes de Pétri (35 mm) et adjonction de sérum anti-HSV1 dans le surnageant pour neutraliser les virions qui pourraient être libérés dans le milieu liquide, permettant ainsi de compter des plages : 100 à 150 unités formant plages par boîte inoculée avec 0,5 ml d'une solution virale diluée à 10^-4. […]
smiles,measurement,setting,value
"CCCCCCCCCC[N+](C)(C)CCCCCCCCCC [Bardac®, chlorure de didécyldiméthylammonium]",canards protégés,virus HBV,4/4
same,Nombre d'unités formant plage par millilitre de virus dilué à 10^-4,[1],30/125/45 and 26/17/20

# Source: EP0555116B1, “Compositions based on antiseptics and their applications” (HUTCHINSON, priority 1992, dated 1993)
